Assay results from patent US9133207B2, “Tetrandrine derivatives with substituted 5-carbon, preparation method and use thereof” (Hangzhou Bensheng Pharmaceutical Co., Ltd., priority 2011, dated 2015).
In brackets after ≈: the same amount, converted by molar mass.

Assays:
[1] = tested on: RPMI8226 (multiple myeloma); assay: Multiple myeloma cell growth inhibition, MTT, 72 h (Example 6); type: cell-based, human; details: Homo sapiens, RPMI-8226; 72 h, MTT, RPMI8226
Experimental: Multiple myeloma and lymphoma cell lines: RPMI8226 (multiple myeloma), purchased from Fuxiang Bio-tech Co. Ltd., Shanghai, China.
(§1) Reagents: the same as in Example 5.
Obtaining 6000 well-growing leukemia cells and inoculating them into wells of a 96-well cell culture plate. The culture medium is a 1640 cell culture medium containing 10% fetal bovine serum. After adding the tetrandrine derivatives of different concentrations and mixing uniformly, placing the plate in a carbon dioxide cell incubator (5% CO2) at 37° C. and incubated for 72 hours. Then the viable cell concentration is determined by the MTT method.

[2] = tested on: CaES-17 (esophageal cancer cell); assay: Solid tumor cell growth inhibition, MTT, 72 h (Example 7); type: cell-based, human; details: Homo sapiens, CaEs17; 72 h, MTT, CAES-17
Experimental: (§2) Human solid tumor cell lines: Hep-2 (laryngeal carcinoma), A549 (human lung cancer), CaES-17 (esophageal cancer cell), PC-3 (prostate cancer), CNE (nasopharyngeal carcinoma cell) and SK-OV-3 (ovarian cancer cell), all of which are purchased from China Center For Type Culture Collection; RKO (human colon adenocarcinoma cell), MGC 803 (human gastric cancer cell), MG63 (osteosarcoma), and U87 MG (malignant glioma cell), all of which are purchased from Fuxiang Bio-tech Co. Ltd., Shanghai, China; PANC-1 (pancreatic cancer), Huh? (human liver cancer cell), Becap37 (human breast cancer cell), and Hela (human cervical cancer cell), all of which are donated by Cancer Research Institute of Zhejiang University, China.
as §1
(§3) Obtaining 4000 well-growing human solid tumor cells and inoculating them into wells of a 96-well cell culture plate. The culture medium is DMEM High Glucose cell culture medium containing 10% fetal bovine serum. The plate is placed in a carbon dioxide cell incubator (5% CO2) at 37° C. and incubated for 24 hours. After been added with tetrandrine derivatives of different concentration and mixing uniformly, the plate is placed in a carbon dioxide cell incubator (5% CO2) at 37° C. and incubated for 72 hours. Then the viable cell concentration is determined by the MTT method and the cell viability (%) after drug treatment is calculated. In this experiment, the cell viability of control group (not treated with any compound) is set as 100%.

[3] = tested on: PANC-1 (pancreatic cancer); assay: as above; type: cell-based, human; details: Homo sapiens; 72 h, MTT, PANC-1
Experimental: as §2, §1, §3

PC-3 (prostate cancer) = assay: as above; type: cell-based, human; details: Homo sapiens; 72 h, MTT, PC-3
Experimental: as §2, §1, §3

MG63 (osteosarcoma) = assay: as above; type: cell-based, human; details: Homo sapiens; 72 h, MTT, MG-63
Experimental: as §2, §1, §3

[4] = tested on: Kasumi-1 (acute myeloid leukemia M2 type, AML-M2); assay: Leukemia cell growth inhibition, MTT, 72 h (Example 5); type: cell-based, human; details: Homo sapiens, Kasumi 1
From the text: (§4) Leukemia cell lines: leukemia cell lines: K562/adr (drug-resistant, chronic myeloid leukemia, CML), NB4 (acute promyelocytic leukemia, AML), Kasumi-1 (acute myeloid leukemia M2 type, AML-M2), Jurkat (acute lymphoblastic leukemia, ALL), all of which are donated by Cancer Research Institute of Zhejiang University, China; and H9 (acute lymphoblastic leukemia, ALL), which is purchased from China Center for Type Culture Collection.
(§5) Reagents: The standard sample of tetrandrine (TTD) is purchased from Ci Yuan Biotechnology Co., Ltd., Shaanxi, China; and the 5-substituted tetrandrine derivatives of the present invention.
(§6) Obtaining 6000 well-growing leukemia cells and inoculating them into wells of a 96-well cell culture plate. The culture medium is a 1640 cell culture medium containing 10% fetal bovine serum. After adding the tetrandrine derivatives of different concentrations and mixing uniformly, placing the plate in a carbon dioxide cell incubator (5% CO2) at 37° C. and incubating for 72 hours. Then the viable cell concentration is determined by the MTT method.

[5] = tested on: H9 (acute lymphoblastic leukemia, ALL); assay: as above; type: cell-based, human; details: Homo sapiens; 72 h, MTT
From the text: as §4, §5, §6

[6] = tested on: Jurkat (acute lymphoblastic leukemia, ALL); assay: as above; type: cell-based, human; details: Homo sapiens, Jurkat; 72 h, MTT
From the text: as §4, §5, §6

[7] = tested on: K562/adr (drug-resistant, chronic myeloid leukemia, CML); assay: as above; type: cell-based, human; details: Homo sapiens, K562/Adr; 72 h, MTT
From the text: as §4, §5, §6

[8] = tested on: Huh7 (human liver cancer cell); assay: Solid tumor cell growth inhibition, MTT, 72 h (Example 7); type: cell-based; details: Homo sapiens; 72 h, MTT, Huh-7
Experimental: as §2, §1, §3

[9] = tested on: Becap37 (human breast cancer cell); assay: as above; type: cell-based; details: Homo sapiens; 72 h, MTT, Becap-37
Experimental: as §2, §1, §3

[10] = tested on: MGC 803 (human gastric cancer cell); assay: as above; type: cell-based; details: Homo sapiens
Experimental: as §2, §1, §3

A549 (human lung cancer) = assay: as above; type: cell-based; details: Homo sapiens; 72 h, MTT, A549
Experimental: as §2, §1, §3

Row | SMILES | IC50 [1] [µg/mL] | IC90 [1] [µg/mL] | IC50 [2] [µg/mL] | IC90 [2] [µg/mL] | IC50 [3] [µg/mL] | IC90 [3] [µg/mL] | IC50 (PC-3 (prostate cancer)) [µg/mL] | IC90 (PC-3 (prostate cancer)) [µg/mL] | IC50 (MG63 (osteosarcoma)) [µg/mL] | IC90 (MG63 (osteosarcoma)) [µg/mL] | IC50 [4] [µg/mL] | IC90 [4] [µg/mL] | IC50 [5] [µg/mL] | IC90 [5] [µg/mL] | IC50 [6] [µg/mL] | IC90 [6] [µg/mL] | IC50 [7] [µg/mL] | IC90 [7] [µg/mL] | IC50 [8] [µg/mL] | IC90 [8] [µg/mL] | also measured
1 | COCCCOCc1c2c3c(c(OC)c1OC)Oc1cc4c(cc1OC)CCN(C)[C@H]4Cc1ccc(cc1)Oc1cc(ccc1OC)C[C@@H]3N(C)CC2 [BS-TE-416] | 0.29 (≈ 0.4 µM) | 2.76 (≈ 3.81 µM) | 2.3 (≈ 3.17 µM) | 16.6 (≈ 22.9 µM) | 4.63 (≈ 6.39 µM) | 10 (≈ 13.8 µM) | 4.19 (≈ 5.78 µM) | 9.49 (≈ 13.1 µM) | 1.08 (≈ 1.49 µM) | 2.49 (≈ 3.43 µM) | 2.11 (≈ 2.91 µM) | 8.17 (≈ 11.3 µM) | 2.31 (≈ 3.19 µM) | 4.4 (≈ 6.07 µM) | 3.45 (≈ 4.76 µM) | 11.7 (≈ 16.1 µM) | 0.98 (≈ 1.35 µM) | 5.59 (≈ 7.71 µM) | 2.93 (≈ 4.04 µM) | 5.07 (≈ 6.99 µM) | IC50 [9]: 1.8 µg/mL (≈ 2.48 µM); IC90 [9]: 4.31 µg/mL (≈ 5.95 µM); IC50 [10]: 5.17 µg/mL (≈ 7.13 µM); IC90 [10]: 8.33 µg/mL (≈ 11.5 µM); IC50 (A549 (human lung cancer)): 4.05 µg/mL (≈ 5.59 µM); IC90 (A549 (human lung cancer)): 11 µg/mL (≈ 15.1 µM)
2 | COc1ccc2cc1Oc1ccc(cc1)C[C@H]1c3cc(c(OC)cc3CCN1C)Oc1c(OC)c(OC)c(COCc3ccc(F)cc3)c3c1[C@H](C2)N(C)CC3 [BS-TE-408] | 0.23 (≈ 0.302 µM) | 1.13 (≈ 1.49 µM) | 4.8 (≈ 6.31 µM) | 14.9 (≈ 19.6 µM) | 6 (≈ 7.89 µM) | 9.9 (≈ 13 µM) | 5.77 (≈ 7.58 µM) | 9.09 (≈ 11.9 µM) | 2.88 (≈ 3.78 µM) | 9.84 (≈ 12.9 µM) | 2.52 (≈ 3.31 µM) | 8 (≈ 10.5 µM) | 2.5 (≈ 3.29 µM) | 3.99 (≈ 5.24 µM) | 2.94 (≈ 3.86 µM) | 6.94 (≈ 9.12 µM) | 0.87 (≈ 1.14 µM) | 2.78 (≈ 3.65 µM) | 1.84 (≈ 2.42 µM) | 3.51 (≈ 4.61 µM) | IC50 [9]: 4.89 µg/mL (≈ 6.43 µM); IC90 [9]: 36.6 µg/mL (≈ 48.1 µM); IC50 [10]: 2.59 µg/mL (≈ 3.4 µM); IC90 [10]: 3.97 µg/mL (≈ 5.22 µM); IC50 (A549 (human lung cancer)): 3.1 µg/mL (≈ 4.07 µM); IC90 (A549 (human lung cancer)): 7.05 µg/mL (≈ 9.27 µM)
3 | COc1ccc2cc1Oc1ccc(cc1)C[C@H]1c3cc(c(OC)cc3CCN1C)Oc1c(OC)c(OC)c(COC(=O)c3ccccc3)c3c1[C@H](C2)N(C)CC3 [BS-TE-224] | 0.27 (≈ 0.357 µM) | 1.44 (≈ 1.9 µM) | 2.4 (≈ 3.17 µM) | 7.23 (≈ 9.55 µM) | 5.68 (≈ 7.5 µM) | 8.76 (≈ 11.6 µM) | 6.38 (≈ 8.43 µM) | 9 (≈ 11.9 µM) | 2.76 (≈ 3.65 µM) | 4.51 (≈ 5.96 µM) | 3.19 (≈ 4.21 µM) | 7.36 (≈ 9.72 µM) | 2.99 (≈ 3.95 µM) | 4.75 (≈ 6.28 µM) | 3.39 (≈ 4.48 µM) | 7.65 (≈ 10.1 µM) | 0.67 (≈ 0.885 µM) | 4.65 (≈ 6.14 µM) | 2.4 (≈ 3.17 µM) | 3.93 (≈ 5.19 µM) | IC50 [9]: 2.85 µg/mL (≈ 3.77 µM); IC90 [9]: 4.18 µg/mL (≈ 5.52 µM); IC50 [10]: 2.45 µg/mL (≈ 3.24 µM); IC90 [10]: 3.72 µg/mL (≈ 4.91 µM); IC50 (A549 (human lung cancer)): > 16 µg/mL; IC90 (A549 (human lung cancer)): > 16 µg/mL
